Where two headings read alike, the source gives them in different places.
Tests used:
Experiment in all cases: KINOMEscan ScanTK
Type in all cases: binding
[1] = target: T1, ABL1(F317I)-nonphosphorylated (Homo sapiens, UniProt P00519, F317I)
T1 construct: purchased Eurofins DiscoverX KINOMEscan (scanTK)

[2] = target: T2, ABL1(F317I)-phosphorylated (Homo sapiens, UniProt P00519, F317I)
T2 construct: purchased Eurofins DiscoverX KINOMEscan (scanTK)

[3] = target: T3, ABL1(Q252H)-nonphosphorylated (Homo sapiens, UniProt P00519, Q252H)
T3 construct: purchased Eurofins DiscoverX KINOMEscan (scanTK)

BLK = target: T4, BLK (Homo sapiens, UniProt P51451)
T4 construct: purchased Eurofins DiscoverX KINOMEscan (scanTK)

EGFR(E746-A750del) = target: T5, EGFR(E746-A750del) (Homo sapiens, UniProt P00533, DEL746-750)
T5 construct: purchased Eurofins DiscoverX KINOMEscan (scanTK)

EGFR(L747-T751del,Sins) = system: EGFR(L747-T751del,Sins)
EPHA6 = target: T6, EPHA6 (Homo sapiens, UniProt Q9UF33)
T6 construct: purchased Eurofins DiscoverX KINOMEscan (scanTK)
T6 sequence (Q9UF33 23-1036): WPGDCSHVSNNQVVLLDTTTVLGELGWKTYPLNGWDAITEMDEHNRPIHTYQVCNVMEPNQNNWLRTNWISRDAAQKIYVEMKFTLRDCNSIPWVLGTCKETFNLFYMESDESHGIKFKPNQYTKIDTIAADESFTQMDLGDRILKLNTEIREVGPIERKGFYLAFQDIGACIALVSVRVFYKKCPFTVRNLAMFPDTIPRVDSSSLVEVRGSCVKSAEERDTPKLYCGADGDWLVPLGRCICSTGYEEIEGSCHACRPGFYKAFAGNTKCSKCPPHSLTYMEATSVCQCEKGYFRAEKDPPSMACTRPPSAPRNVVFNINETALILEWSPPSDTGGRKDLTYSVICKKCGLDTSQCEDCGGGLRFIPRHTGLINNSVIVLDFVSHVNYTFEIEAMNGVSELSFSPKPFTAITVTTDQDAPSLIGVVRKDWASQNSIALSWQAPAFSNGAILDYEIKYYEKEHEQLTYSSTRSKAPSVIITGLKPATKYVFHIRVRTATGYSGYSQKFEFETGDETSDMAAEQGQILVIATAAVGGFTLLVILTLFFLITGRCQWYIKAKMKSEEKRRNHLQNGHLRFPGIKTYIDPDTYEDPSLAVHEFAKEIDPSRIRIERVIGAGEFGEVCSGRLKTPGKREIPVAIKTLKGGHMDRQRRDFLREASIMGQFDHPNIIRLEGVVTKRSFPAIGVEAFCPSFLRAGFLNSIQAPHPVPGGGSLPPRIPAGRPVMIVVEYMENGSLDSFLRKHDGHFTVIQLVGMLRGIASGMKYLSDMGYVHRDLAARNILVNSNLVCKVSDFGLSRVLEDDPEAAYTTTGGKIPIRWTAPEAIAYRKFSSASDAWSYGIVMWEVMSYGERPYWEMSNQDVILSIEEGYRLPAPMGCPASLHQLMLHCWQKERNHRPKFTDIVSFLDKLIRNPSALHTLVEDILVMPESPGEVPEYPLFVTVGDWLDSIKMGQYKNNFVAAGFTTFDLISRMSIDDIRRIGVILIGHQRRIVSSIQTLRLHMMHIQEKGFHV

EPHB3 = target: T7, EPHB3 (Homo sapiens, UniProt P54753)
T7 construct: purchased Eurofins DiscoverX KINOMEscan (scanTK)
T7 sequence (P54753 34-998): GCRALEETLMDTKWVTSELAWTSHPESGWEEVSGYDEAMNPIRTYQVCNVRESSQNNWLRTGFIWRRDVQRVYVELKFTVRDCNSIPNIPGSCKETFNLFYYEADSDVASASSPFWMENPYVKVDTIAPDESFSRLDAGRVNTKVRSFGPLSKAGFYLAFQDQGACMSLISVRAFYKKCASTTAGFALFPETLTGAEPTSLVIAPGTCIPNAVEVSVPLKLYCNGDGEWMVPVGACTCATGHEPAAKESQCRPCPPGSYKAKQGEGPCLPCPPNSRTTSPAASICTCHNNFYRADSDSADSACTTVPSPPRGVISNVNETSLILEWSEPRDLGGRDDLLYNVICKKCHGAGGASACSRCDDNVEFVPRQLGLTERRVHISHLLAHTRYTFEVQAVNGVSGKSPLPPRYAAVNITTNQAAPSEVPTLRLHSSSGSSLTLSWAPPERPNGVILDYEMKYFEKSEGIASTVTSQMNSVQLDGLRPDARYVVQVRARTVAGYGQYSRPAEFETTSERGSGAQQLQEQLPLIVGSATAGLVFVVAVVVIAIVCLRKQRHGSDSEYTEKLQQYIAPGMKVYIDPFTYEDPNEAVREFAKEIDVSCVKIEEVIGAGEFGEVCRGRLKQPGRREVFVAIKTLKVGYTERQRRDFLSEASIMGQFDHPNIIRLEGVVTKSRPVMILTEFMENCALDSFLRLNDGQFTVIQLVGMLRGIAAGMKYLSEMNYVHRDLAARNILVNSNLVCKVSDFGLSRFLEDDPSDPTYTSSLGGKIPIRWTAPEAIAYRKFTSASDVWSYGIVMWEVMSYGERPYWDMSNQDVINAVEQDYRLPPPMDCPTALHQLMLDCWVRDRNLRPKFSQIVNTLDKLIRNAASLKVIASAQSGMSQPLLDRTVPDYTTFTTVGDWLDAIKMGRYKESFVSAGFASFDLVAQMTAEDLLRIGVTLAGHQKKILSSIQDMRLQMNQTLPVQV

FGFR3 = target: T8, FGFR3 (Homo sapiens, UniProt P22607)
T8 construct: purchased Eurofins DiscoverX KINOMEscan (scanTK)

MET = target: T9, MET (Homo sapiens, UniProt P08581)
T9 construct: purchased Eurofins DiscoverX KINOMEscan (scanTK)

MET(M1250T) = target: T10, MET(M1250T) (Homo sapiens, UniProt P08581, M1250T)
T10 construct: purchased Eurofins DiscoverX KINOMEscan (scanTK)

TIE1 = target: T11, TIE1 (Homo sapiens, UniProt P35590)
T11 construct: purchased Eurofins DiscoverX KINOMEscan (scanTK)

[4] = @1000nM, BLK, read-out: %Control
[5] = BLK, read-out: %Control @1000nM

T10 sequence (P08581 25-1390 M1250T): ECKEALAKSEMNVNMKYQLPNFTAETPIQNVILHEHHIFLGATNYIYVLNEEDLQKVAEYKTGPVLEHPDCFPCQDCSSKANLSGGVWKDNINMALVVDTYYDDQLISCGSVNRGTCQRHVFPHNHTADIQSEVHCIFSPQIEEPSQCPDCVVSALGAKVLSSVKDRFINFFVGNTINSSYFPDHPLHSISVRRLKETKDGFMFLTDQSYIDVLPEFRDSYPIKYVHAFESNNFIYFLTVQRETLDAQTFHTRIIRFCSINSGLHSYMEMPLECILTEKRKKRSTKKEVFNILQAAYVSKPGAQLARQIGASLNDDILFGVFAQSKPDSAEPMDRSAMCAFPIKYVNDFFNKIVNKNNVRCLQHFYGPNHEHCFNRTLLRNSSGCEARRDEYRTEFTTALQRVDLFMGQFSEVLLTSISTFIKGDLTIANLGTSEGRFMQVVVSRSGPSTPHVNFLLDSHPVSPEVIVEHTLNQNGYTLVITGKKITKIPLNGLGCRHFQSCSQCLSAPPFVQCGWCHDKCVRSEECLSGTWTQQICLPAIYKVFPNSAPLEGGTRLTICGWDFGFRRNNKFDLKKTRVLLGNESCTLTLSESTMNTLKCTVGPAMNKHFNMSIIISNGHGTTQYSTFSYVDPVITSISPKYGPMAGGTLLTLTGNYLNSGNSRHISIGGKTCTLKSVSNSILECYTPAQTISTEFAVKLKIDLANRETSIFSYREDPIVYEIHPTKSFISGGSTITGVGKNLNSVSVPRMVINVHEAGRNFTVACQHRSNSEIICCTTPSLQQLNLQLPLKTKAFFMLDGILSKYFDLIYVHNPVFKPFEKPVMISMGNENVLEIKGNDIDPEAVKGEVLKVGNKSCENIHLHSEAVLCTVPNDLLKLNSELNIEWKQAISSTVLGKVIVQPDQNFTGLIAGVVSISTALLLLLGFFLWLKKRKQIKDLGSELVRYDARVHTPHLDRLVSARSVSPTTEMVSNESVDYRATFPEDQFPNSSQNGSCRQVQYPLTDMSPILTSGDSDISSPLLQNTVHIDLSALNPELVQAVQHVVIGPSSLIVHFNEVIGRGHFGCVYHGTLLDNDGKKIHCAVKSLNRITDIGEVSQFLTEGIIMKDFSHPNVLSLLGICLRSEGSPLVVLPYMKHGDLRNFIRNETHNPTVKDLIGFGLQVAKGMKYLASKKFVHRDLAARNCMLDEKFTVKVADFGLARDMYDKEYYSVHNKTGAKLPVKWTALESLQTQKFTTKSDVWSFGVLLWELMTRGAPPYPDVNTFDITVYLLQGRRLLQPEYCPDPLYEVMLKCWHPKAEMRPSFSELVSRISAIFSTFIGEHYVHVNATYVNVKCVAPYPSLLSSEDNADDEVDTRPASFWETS
T9 sequence (P08581 25-1390): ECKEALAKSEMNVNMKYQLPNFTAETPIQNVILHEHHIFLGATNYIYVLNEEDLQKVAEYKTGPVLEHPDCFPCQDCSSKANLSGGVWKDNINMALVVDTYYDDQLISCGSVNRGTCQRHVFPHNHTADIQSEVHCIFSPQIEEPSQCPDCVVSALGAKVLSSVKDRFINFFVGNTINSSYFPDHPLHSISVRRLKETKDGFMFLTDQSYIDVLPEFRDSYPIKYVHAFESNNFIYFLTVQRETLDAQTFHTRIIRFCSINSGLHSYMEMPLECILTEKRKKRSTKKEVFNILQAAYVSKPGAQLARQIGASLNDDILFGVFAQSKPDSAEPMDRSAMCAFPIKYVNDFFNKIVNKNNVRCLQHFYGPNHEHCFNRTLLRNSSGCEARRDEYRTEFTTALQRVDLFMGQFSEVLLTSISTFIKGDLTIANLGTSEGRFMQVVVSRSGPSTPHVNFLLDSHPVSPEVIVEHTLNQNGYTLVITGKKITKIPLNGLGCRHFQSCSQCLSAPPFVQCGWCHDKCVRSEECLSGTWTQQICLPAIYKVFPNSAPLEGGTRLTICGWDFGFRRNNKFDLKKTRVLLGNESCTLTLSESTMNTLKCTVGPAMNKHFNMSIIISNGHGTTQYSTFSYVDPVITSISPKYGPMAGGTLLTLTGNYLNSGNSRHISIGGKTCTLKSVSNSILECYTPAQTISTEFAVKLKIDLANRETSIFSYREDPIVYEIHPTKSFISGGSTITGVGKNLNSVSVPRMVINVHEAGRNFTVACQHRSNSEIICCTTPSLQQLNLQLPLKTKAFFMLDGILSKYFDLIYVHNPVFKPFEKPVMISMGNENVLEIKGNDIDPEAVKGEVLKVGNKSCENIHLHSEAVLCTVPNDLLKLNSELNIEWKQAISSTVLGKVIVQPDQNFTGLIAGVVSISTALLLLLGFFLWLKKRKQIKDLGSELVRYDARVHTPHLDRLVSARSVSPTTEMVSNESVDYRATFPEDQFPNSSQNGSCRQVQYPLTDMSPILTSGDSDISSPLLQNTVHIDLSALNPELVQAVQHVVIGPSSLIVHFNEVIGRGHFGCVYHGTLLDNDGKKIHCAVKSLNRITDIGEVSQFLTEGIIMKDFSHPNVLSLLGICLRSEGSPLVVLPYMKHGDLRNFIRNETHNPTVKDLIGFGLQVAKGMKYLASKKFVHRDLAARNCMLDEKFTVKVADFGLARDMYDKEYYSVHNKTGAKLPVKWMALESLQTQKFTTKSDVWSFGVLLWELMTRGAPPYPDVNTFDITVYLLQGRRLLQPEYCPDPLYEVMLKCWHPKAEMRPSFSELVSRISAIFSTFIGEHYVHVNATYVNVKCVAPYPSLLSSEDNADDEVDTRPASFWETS
T4 sequence (P51451 whole entry): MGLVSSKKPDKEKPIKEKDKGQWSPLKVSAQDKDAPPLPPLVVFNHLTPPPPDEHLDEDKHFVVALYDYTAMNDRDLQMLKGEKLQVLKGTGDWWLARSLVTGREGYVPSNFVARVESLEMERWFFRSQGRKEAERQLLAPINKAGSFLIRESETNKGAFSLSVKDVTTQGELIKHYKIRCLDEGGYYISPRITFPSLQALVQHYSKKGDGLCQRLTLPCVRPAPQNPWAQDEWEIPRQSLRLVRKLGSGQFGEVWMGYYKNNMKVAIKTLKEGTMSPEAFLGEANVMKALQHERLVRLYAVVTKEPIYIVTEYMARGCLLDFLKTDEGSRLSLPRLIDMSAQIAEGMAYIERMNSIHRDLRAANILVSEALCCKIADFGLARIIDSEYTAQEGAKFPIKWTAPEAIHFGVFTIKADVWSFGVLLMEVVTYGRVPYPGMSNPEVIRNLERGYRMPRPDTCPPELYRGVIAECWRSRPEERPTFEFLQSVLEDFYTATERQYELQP
T11 sequence (P35590 22-1138): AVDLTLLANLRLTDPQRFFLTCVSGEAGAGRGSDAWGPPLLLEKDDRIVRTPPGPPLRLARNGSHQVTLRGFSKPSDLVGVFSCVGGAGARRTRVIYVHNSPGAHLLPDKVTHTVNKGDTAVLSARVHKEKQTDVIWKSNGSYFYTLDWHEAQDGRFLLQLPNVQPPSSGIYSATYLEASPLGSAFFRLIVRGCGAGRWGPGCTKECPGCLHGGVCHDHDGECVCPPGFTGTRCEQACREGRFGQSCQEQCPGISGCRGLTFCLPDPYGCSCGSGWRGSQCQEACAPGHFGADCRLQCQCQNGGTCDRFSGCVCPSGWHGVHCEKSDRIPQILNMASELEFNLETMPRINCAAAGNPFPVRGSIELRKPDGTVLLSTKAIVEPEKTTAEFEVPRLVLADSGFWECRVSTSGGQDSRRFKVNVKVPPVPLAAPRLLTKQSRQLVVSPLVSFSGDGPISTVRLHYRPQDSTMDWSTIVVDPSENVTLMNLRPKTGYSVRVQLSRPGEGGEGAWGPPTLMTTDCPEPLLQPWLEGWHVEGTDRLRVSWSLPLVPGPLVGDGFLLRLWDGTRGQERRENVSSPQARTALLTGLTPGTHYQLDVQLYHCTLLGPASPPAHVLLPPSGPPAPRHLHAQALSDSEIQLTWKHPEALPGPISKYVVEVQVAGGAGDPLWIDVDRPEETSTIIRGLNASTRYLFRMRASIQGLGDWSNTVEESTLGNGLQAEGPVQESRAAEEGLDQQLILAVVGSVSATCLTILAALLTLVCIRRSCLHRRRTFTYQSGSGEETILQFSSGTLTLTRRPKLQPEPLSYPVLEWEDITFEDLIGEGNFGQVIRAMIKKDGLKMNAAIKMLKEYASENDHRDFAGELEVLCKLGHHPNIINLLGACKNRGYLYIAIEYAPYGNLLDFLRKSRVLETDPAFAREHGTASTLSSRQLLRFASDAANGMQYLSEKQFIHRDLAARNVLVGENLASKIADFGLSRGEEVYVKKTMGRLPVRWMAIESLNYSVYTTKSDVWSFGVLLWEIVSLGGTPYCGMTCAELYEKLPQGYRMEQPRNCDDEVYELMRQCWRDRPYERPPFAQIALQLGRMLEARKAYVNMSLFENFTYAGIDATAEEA
T5 sequence (P00533 with tags, fused parts or gaps DEL746-750 limits assumed): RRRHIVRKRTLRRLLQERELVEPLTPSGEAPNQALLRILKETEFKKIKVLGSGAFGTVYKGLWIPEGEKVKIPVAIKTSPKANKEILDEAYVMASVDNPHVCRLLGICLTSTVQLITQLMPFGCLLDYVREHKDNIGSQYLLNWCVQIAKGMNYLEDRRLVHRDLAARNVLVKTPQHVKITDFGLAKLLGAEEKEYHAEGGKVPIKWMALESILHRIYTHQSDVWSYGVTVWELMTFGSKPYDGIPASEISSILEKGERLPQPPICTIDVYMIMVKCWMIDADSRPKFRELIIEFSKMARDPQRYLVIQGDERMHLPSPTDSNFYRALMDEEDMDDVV

For `Cc1cnc(S(C)(=O)=O)nc1N1CCCC(n2nc(-c3ccc(Oc4ccccc4)cc3)c3c(N)ncnc32)C1` (centres unmarked) [Compound 8a, 1-(1-(5-Methyl-2-(methylsulfonyl)pyrimidin-4-yl)piperidin-3-yl)-3-(4-phenoxyphenyl)-1H-pyrazolo[3,4-d]pyrimidin-4-amine], the difference in %Control versus compound Ib at 1 µM ([1]; @1000nM) was 29%, the remaining binding at 1 µM ([1]; @1000nM, read-out: %Control) was 81% and the remaining binding at 1 µM ([1]; read-out: %Control @1000nM) was 81%. For the same compound, the difference in %Control from reference compound Ib at 1 µM ([2]; @1000nM) was 17%, the remaining binding at 1 µM ([2]; @1000nM, read-out: %Control) was 90% and the remaining binding at 1 µM ([2]; read-out: %Control @1000nM) was 90%. The difference in %Control versus reference compound Ib at 1 µM ([3]; @1000nM) was 25%, the remaining binding at 1 µM ([3]; @1000nM, read-out: %Control) was 38% and the remaining binding at 1 µM ([3]; read-out: %Control @1000nM) was 38%. For the same compound, the difference in %Control vs reference Ib at 1 µM (BLK; @1000nM, BLK, read-out: % difference (compound - Ib %Control)) was 0.05%, the remaining binding at 1 µM (BLK; [4]) was 0.1% and the remaining binding at 1 µM (BLK; [5]) was 0.1%. The difference in %Control from reference compound Ib at 1 µM (EGFR(E746-A750del); @1000nM) was 88%, the remaining binding at 1 µM (EGFR(E746-A750del); @1000nM, read-out: %Control) was 99% and the remaining binding at 1 µM (EGFR(E746-A750del); read-out: %Control @1000nM) was 99%. For the same compound, the “%Control @1000nM” value (EGFR(L747-T751del,Sins)) was 70%, the “% difference (compound - Ib %Control)” value (EGFR(L747-T751del,Sins); @1000nM) was 67.4% and the “%Control” value (EGFR(L747-T751del,Sins); @1000nM) was 70%. For the same compound, the difference in %Control from compound Ib at 1 µM (EPHA6; @1000nM) was 23%, the remaining binding at 1 µM (EPHA6; @1000nM, read-out: %Control) was 100% and the remaining binding at 1 µM (EPHA6; read-out: %Control @1000nM) was 100%. It also gave a difference in %Control versus compound Ib at 1 µM (EPHB3; @1000nM) of 2%, a remaining binding at 1 µM (EPHB3; @1000nM, read-out: %Control) of 100% and a remaining binding at 1 µM (EPHB3; read-out: %Control @1000nM) of 100%. It also gave a difference in %Control versus compound Ib at 1 µM (FGFR3; @1000nM) of 44%, a remaining binding at 1 µM (FGFR3; @1000nM, read-out: %Control) of 92% and a remaining binding at 1 µM (FGFR3; read-out: %Control @1000nM) of 92%. The remaining binding at 1 µM (MET; @1000nM, read-out: %Control) was 100%, the remaining binding at 1 µM (MET; read-out: %Control @1000nM) was 100% and the remaining binding at 1 µM (MET(M1250T); @1000nM, read-out: %Control) was 88%. The remaining binding at 1 µM (MET(M1250T); read-out: %Control @1000nM) was 88%, the remaining binding at 1 µM (TIE1; @1000nM, read-out: %Control) was 89% and the remaining binding at 1 µM (TIE1; read-out: %Control @1000nM) was 89%.

Compound `C=CC(=O)N1CCC[C@@H](n2nc(-c3ccc(Oc4ccccc4)cc3)c3c(N)ncnc32)C1` [Compound 1g, Ibrutinib, reference compound] has a remaining binding at 1 µM ([1]; @1000nM, read-out: %Control) of 52%, a remaining binding at 1 µM ([1]; read-out: %Control @1000nM) of 52% and a remaining binding at 1 µM ([2]; @1000nM, read-out: %Control) of 73%. The remaining binding at 1 µM ([2]; read-out: %Control @1000nM) was 73%, the remaining binding at 1 µM ([3]; @1000nM, read-out: %Control) was 13% and the remaining binding at 1 µM ([3]; read-out: %Control @1000nM) was 13%. The remaining binding at 1 µM (BLK; [4]) was 0.05%, the remaining binding at 1 µM (BLK; [5]) was 0.05% and the inhibition at 1 µM (BLK; ScanTK, 1 μM) was over 99%. For the same compound, the “%Control @1000nM” value (EGFR(L747-T751del,Sins)) was 2.6%, the “%Control” value (EGFR(L747-T751del,Sins); @1000nM) was 2.6% and the remaining binding at 1 µM (EPHA6; @1000nM, read-out: %Control) was 77%. It also gave a remaining binding at 1 µM (EPHA6; read-out: %Control @1000nM) of 77%, a remaining binding at 1 µM (EPHB3; @1000nM, read-out: %Control) of 98% and a remaining binding at 1 µM (EPHB3; read-out: %Control @1000nM) of 98%. It also gave a remaining binding at 1 µM (FGFR3; @1000nM, read-out: %Control) of 48%, a remaining binding at 1 µM (FGFR3; read-out: %Control @1000nM) of 48% and a remaining binding at 1 µM (MET; @1000nM, read-out: %Control) of 100%. For the same compound, the remaining binding at 1 µM (MET; read-out: %Control @1000nM) was 100%, the remaining binding at 1 µM (MET(M1250T); @1000nM, read-out: %Control) was 96% and the remaining binding at 1 µM (MET(M1250T); read-out: %Control @1000nM) was 96%. The remaining binding at 1 µM (TIE1; @1000nM, read-out: %Control) was 57% and the remaining binding at 1 µM (TIE1; read-out: %Control @1000nM) was 57%.
